Measured values from the NIST ThermoML archive (doi:10.1021/je600568w).

Assays:
[1] = xn = mol fraction of the nth substance listed; conditions: 101 kPa, Liquid; for viscosity: Capillary tube (Ostwald / Ubbelohde) method
[2] = 101 kPa, Liquid; for viscosity: Capillary tube (Ostwald / Ubbelohde) method

CCOC(=O)C(C)O (stereo not drawn) [DL-ethyl lactate] + C=C(C)C(=O)O
[1], x1 = 1
Conditions | mass density [kg/m3] | viscosity [mPa·s]
298.15 K | 1029.1 | 2.398
308.15 K | 1018.7 | 1.863
318.15 K | 1007.5 | 1.494

CCOC(=O)C(C)O (stereo not drawn) [DL-ethyl lactate] + C=C(C)C(=O)OCCO
[1], x1 = 1
Conditions | mass density [kg/m3] | viscosity [mPa·s]
298.15 K | 1029.1 | 2.398
308.15 K | 1018.7 | 1.863
318.15 K | 1007.5 | 1.494

CCOC(=O)C(C)O (stereo not drawn) [DL-ethyl lactate] + C=C(C)C(=O)OCc1ccccc1
[1], x1 = 1
Conditions | mass density [kg/m3] | viscosity [mPa·s]
298.15 K | 1029.1 | 2.398
308.15 K | 1018.7 | 1.863
318.15 K | 1007.5 | 1.494

C=C(C)C(=O)OCc1ccccc1 [benzyl methacrylate]
[2]
Conditions | mass density [kg/m3] | viscosity [mPa·s]
298.15 K | 1034.7 | 2.302
308.15 K | 1025.8 | 1.885
318.15 K | 1017 | 1.58

C=C(C)C(=O)OCc1ccccc1 [benzyl methacrylate] + CCOC(=O)C(C)O
[1]
Conditions | mass density, 298.15 K [kg/m3] | mass density, 308.15 K [kg/m3] | mass density, 318.15 K [kg/m3] | viscosity, 298.15 K [mPa·s] | viscosity, 308.15 K [mPa·s] | viscosity, 318.15 K [mPa·s]
x2 = 0 | 1034.7 | 1025.8 | 1017 | 2.302 | 1.885 | 1.58
x2 = 0.1 | 1033.7 | 1024.3 | 1015.1 | 2.219 | 1.832 | 1.53
x2 = 0.1999 | 1032.7 | 1023.3 | 1013.9 | 2.166 | 1.8 | 1.493
x2 = 0.3 | 1032.1 | 1022.6 | 1012.9 | 2.153 | 1.77 | 1.458
x2 = 0.4 | 1031.6 | 1021.9 | 1012.1 | 2.149 | 1.753 | 1.437
x2 = 0.5 | 1031.1 | 1021.2 | 1011.2 | 2.161 | 1.749 | 1.426
x2 = 0.6 | 1030.7 | 1020.6 | 1010.4 | 2.179 | 1.753 | 1.426
x2 = 0.7 | 1030.2 | 1020 | 1009.5 | 2.209 | 1.761 | 1.431
x2 = 0.7999 | 1029.8 | 1019.4 | 1008.7 | 2.25 | 1.782 | 1.447
x2 = 0.9 | 1029.4 | 1018.9 | 1008 | 2.303 | 1.807 | 1.464
